The record followed here is patent US11873298B2, “Compounds and uses thereof” (JANSSEN PHARMACEUTICA NV, priority 2017, dated 2024).

Molecules are shown by their SMILES.

One experiment has as its target T1, Ole1 (Saccharomyces cerevisiae, UniProt P21147).
T1 construct: expressed in transfected cells; host or cells: S. cerevisiae ole1Δ strain (W303 pdr1Δ pdr3Δ background), plasmid pRS316 with TDH3 promoter and CYC1 terminator
T1 sequence (P21147 1-510): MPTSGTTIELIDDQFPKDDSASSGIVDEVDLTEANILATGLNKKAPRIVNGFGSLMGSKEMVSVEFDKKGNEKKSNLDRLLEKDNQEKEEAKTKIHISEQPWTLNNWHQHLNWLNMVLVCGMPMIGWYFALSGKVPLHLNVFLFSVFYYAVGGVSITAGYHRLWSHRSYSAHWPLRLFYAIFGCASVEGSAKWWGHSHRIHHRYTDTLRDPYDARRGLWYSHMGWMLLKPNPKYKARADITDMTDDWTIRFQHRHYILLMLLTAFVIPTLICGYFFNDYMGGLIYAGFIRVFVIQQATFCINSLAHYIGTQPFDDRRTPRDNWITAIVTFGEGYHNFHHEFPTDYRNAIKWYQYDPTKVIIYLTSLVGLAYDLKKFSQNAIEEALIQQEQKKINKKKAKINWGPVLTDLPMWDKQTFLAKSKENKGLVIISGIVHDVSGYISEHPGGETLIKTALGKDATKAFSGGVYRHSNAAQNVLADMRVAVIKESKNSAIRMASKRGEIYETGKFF
The experiment in a line: Growth inhibition of yeast strain expressing Ole1 as sole desaturase. It is filed as cell-based. To be noted: yeast strain expressing Ole1 as sole desaturase. The method in brief: (§1)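 Measured by optical density at 600 nm, growth of desaturase-dependent yeast (OLE1 deleted; human SCD1, human SCD5 or yeast Ole1 supplied from plasmid) was scored after 24 h (Ole1) or 40 h (SCD1, SCD5) at 30° C. in galactose media lacking uracil with DMSO-delivered compound.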

In experiment [1] the test system is yeast strains expressing the human ApoE4. The experiment in a line: Yeast ApoE4 toxicity rescue assay (OD600 growth). To be noted: 24 h; for Emax: read-out: ApoE4 Emax; for EC50: read-out: ApoE4 EC50.
The next experiment concerns the target T2, SCD5 (Homo sapiens, UniProt Q86SK9).
T2 construct: host or cells: S. cerevisiae ole1Δ strain (W303 pdr1Δ pdr3Δ background), plasmid pRS316 with TDH3 promoter and CYC1 terminator
T2 sequence (Q86SK9 1-330): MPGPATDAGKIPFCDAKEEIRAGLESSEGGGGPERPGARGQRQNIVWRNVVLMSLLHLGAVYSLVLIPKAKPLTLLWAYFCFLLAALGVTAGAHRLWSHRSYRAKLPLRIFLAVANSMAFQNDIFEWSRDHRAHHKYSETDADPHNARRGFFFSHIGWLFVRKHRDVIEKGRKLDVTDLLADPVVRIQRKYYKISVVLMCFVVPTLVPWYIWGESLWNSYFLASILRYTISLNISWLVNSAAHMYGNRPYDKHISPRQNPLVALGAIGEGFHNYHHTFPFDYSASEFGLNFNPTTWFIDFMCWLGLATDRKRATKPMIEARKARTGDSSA
The experiment in a line: Growth inhibition of humanized yeast strain expressing SCD5 as sole desaturase. To be noted: humanized yeast strain expressing SCD5. It is filed as cell-based. In outline: as §1

Experiment [2] deals with yeast strains expressing the human α-synuclein. The experiment in a line: Yeast α-synuclein toxicity rescue assay (OD600 growth). To be noted: 40 h; for EC50: read-out: α-Syn EC50; for Emax: read-out: α-Syn Emax.
Excerpt: The induced expression of α-synuclein and ApoE4 confers cytotoxicity, thus enabling the identification of compounds that can restore cell viability. This instantaneous/synchronous induction of α-synuclein and ApoE4 can be achieved due to the following expression control. In glucose-containing media, gene expression from the GAL1 promoter is ‘off’ and actively repressed by additional epigenetic factors. In raffinose, expression is ‘off’, but the promoter not actively repressed. Upon transition to galactose-containing media, the promoter is instantaneously turned ‘on’ to achieve robust and synchronous induction of α-synuclein or ApoE4 expression. This highly regulated induction provides a robust window for the determination of both efficacy (amplitude of protective effect) and potency (concentration of protective effect) of cytoprotective compounds.
Re-suspended compound stocks were subsequently arrayed into 384 well compound plates using automated pipetting. All other wells not receiving stock compound were filled with 10 μL of 100% DMSO using an automated plate filler (Multidrop Combi). An 11 point, 2-fold serial dilution was then performed using the robotic platform. Compound assay plates were covered with foil and stored at −20° C. until use.
Each strain was handled according to standard protocols and cultured in media composed of CSM (complete synthetic media), YNB (yeast nitrogenous base), and a 2% (w/v) carbon source (either glucose, raffinose, or galactose).
In a standard yeast assay, a single-use aliquot of cells was thawed on ice and diluted into CSM/glucose (5 mL). Cultures were grown for 8 hours at 30° C. This pre-growth enables the yeast to exit the thaw and begin to grow without expressing aSyn or ApoE4. After 8 hours, cell density (OD600) was determined and cultures diluted to an OD600 of 0.01 in CSM/raffinose for an overnight culture phase at 30° C. During this period, the active glucose repression of the GAL1 promoter was relieved; however, expression of the α-Syn/ApoE4 genes were not yet induced. After ˜16 hours of growth, cultures attain an OD600 of 0.4-0.8 and were ready to apply to assay plates containing compound.
Compound profiling assays were executed in clear-bottom 384 well plates. First, compound plates were thawed at room temperature for 45′, centrifuged at 1,000×g for 1 minute, and the foil removed. Clear 384 well assay plates were then filled with 15 μL of CSM/galactose. […] The pin tool was washed iteratively with both 50% DMSO and 100% ethanol between each assay plate. After delivering compound to each assay plate, the overnight CSM/raffinose aSyn or ApoE4 cultures were added at a 2X cell density (0.04 for aSyn and 0.08 for ApoE4) in CSM/galactose to achieve a final assay OD600 of 0.02 and 0.04 for aSyn and ApoE, respectively. The cultures (15 μL per well) were then dispensed to the compound -containing 384 well assay plates using an automated plate filler. Plates were incubated in a humidified 30° C. incubator for 40 or 24 hours for aSyn and ApoE4, respectively. The ODsoo of each assay plate was then read with a microplate reader (e.g., Perkin Elmer Envision).
The efficacy and potency of compounds were calculated according to the following. Raw data (OD600 values) were first background corrected to account for OD600 contributed by the plate and media itself. The efficacy (percent above DMSO, herein referred to as “Emax”) was calculated according to the equation: (Experimental well−DMSO control well)/(DMSO control well)*100. […] Normalized dose-response data was fit with a logistic regression curve using Spotfire (TIBCO), or similar curve-fitting software package. EC50 values were then reported along with EMax to provide both efficacy and potency measures for each analog and enable further compound design.
Another experiment has as its target T3, SCD1 (Homo sapiens, UniProt O00767).
T3 construct: host or cells: S. cerevisiae ole1Δ strain (W303 pdr1Δ pdr3Δ background), plasmid pRS316 with TDH3 promoter and CYC1 terminator
T3 sequence (O00767 1-359): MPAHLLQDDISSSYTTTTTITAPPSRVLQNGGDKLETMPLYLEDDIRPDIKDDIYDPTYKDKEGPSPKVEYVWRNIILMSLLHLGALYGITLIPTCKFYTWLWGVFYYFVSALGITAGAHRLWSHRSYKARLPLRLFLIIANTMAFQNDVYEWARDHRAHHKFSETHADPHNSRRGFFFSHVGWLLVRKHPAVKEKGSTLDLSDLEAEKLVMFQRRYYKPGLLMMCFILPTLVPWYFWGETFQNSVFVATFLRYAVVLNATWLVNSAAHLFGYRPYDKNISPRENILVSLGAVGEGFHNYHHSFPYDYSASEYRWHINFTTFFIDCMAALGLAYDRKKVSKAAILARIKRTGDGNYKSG
The experiment in a line: Growth inhibition of humanized yeast strain expressing SCD1 as sole desaturase. It is filed as cell-based. To be noted: humanized yeast strain expressing SCD1. In outline: as §1

For `CC(C)c1ccc(C(=O)N2CCC(c3nc(-c4cccc(F)c4)no3)CC2)cc1` [compound 8], the IC50 against Ole1, at SCD5 and against SCD1 was greater than 45 µM throughout. In addition, the Emax in experiment [1] amounted to 111%; in experiment [2], 188%. Further, the EC50 in experiment [2] was 13.8 µM.

For `Cc1ccc(-c2nc(C3CCN(C(=O)[C@H]4CC(=O)N(c5ccc(C)c(C)c5)C4)CC3)no2)cc1` (single isomer, unassigned) [compound 71], the half-maximal inhibitory concentration (IC50) against Ole1, against SCD5 and against SCD1 was greater than 45 µM throughout. Besides, the EC50 was 8.97 µM in experiment [1] and 8.09 µM in experiment [2]. For the same compound, the Emax in experiment [1] is 235%; in experiment [2], 151%.

Consider `CCOc1ccc(-c2noc(C3CCN(C(=O)CNC(=O)c4ccccc4)CC3)n2)cc1Br` [compound 99], for which the IC50 against Ole1, against SCD5 and on SCD1 was greater than 45 µM each time. In addition, the EC50 in experiment [1] was 2.75 µM; in experiment [2], 1.03 µM. Besides, the results for the Emax in experiment [1] and in experiment [2] were 663% and 209%, respectively.

As for `CCOc1ccc(-c2noc(C3CCN(C(=O)CNC(=O)c4ccccc4)CC3)n2)cc1F` [compound 97], the results for the half-maximal inhibitory concentration (IC50) against Ole1, at SCD5 and on SCD1 were greater than 45 µM, 30 µM and greater than 45 µM, respectively. Moreover, the values for the EC50 in experiment [1] and in experiment [2] were 3.88 µM and 0.707 µM, respectively. Further, the figures for the Emax in experiment [1] and in experiment [2] were 704% and 132%, respectively.

Take `COc1ccc(-c2noc(C3CCN(C(=O)[C@@H]4CC(=O)N(c5ccc(C)c(C)c5)C4)CC3)n2)cc1` (single isomer, unassigned) [Compound 63]: at Ole1, the IC50 is greater than 45 µM and the “OLE1 % Max Inhibition” value was 101.06%. In addition, in experiment [1], the EC50 came to 13.4 µM and the Emax was found to be 250%. Further, on SCD5, the IC50 was greater than 45 µM and the “SCD5 % Max Inhibition” value amounted to 9.39%. Besides, in experiment [2], the EC50 turned out to be 17.2 µM and the Emax was 68%. Also, at SCD1, the IC50 was found to be 33.7 µM and the “SCD1 % Max Inhibition” value was found to be 62.04%.

As to `O=C(NCC(=O)N1CCC(c2nc(-c3ccccc3F)no2)CC1)c1ccccc1` [Compound 43], at Ole1, the half-inhibitory concentration (IC50) was greater than 45 µM and the “OLE1 % Max Inhibition” value is 107.35%. In experiment [1], the 50% effective concentration (EC50) is 17.7 µM and the Emax was found to be 517%. In addition, on SCD5, the IC50 is greater than 45 µM and the “SCD5 % Max Inhibition” value turned out to be 65.66%. Also, in experiment [2], the EC50 came out at 14.6 µM and the Emax was determined as 222%. At SCD1, the IC50 was greater than 45 µM and the “SCD1 % Max Inhibition” value amounted to 76.52%.

As for `COc1ccc(-c2noc(C3CCN(C(=O)CNC(=O)c4ccc(C)c(C)c4)CC3)n2)cc1` [compound 16], the 50% inhibitory concentration (IC50) is greater than 45 µM on Ole1, greater than 45 µM at SCD5 and 37.1 µM against SCD1. Further, the concentration for a half-maximal effect (EC50) is 21.2 µM in experiment [1] and 17.8 µM in experiment [2]. In addition, the Emax came out at 418% in experiment [1] and 249% in experiment [2].

Turning to `CCN1C(=O)COc2ccc(-c3noc(C4CCN(C(=O)C5CC(=O)N(c6ccc(C)c(C)c6)C5)CC4)n3)cc21` (centres unmarked) [compound 4], the half-maximal inhibitory concentration (IC50) on Ole1, at SCD5 and against SCD1 was greater than 45 µM in each case. For the same compound, the EC50 worked out at 11.8 µM in experiment [1] and 8.43 µM in experiment [2]. The Emax in experiment [1] was determined as 76%; in experiment [2], 59%.

For the compound `CCOc1ccc(-c2noc(C3CCN(C(=O)N4CCCCC4)CC3)n2)cc1OC` [Compound 53], on Ole1, the IC50 is greater than 45 µM and the “OLE1 % Max Inhibition” value amounted to 98.51%. Moreover, in experiment [1], the EC50 worked out at 16.6 µM and the Emax was 296%. On SCD5, the IC50 is greater than 45 µM and the “SCD5 % Max Inhibition” value was determined as 2.94%. Moreover, in experiment [2], the EC50 is 6.6 µM and the Emax is 81%. Besides, at SCD1, the half-inhibitory concentration (IC50) is greater than 45 µM and the “SCD1 % Max Inhibition” value was 79.96%.

Consider `COc1ccc(-c2noc(C3CCN(C(=O)N4CCCCC4)CC3)n2)cc1OC` [Compound 54], for which, at Ole1, the IC50 was greater than 45 µM and the “OLE1 % Max Inhibition” value is 85.34%. Also, in experiment [1], the EC50 was found to be 17.3 µM and the Emax was 240%. Further, at SCD5, the IC50 is greater than 45 µM and the “SCD5 % Max Inhibition” value turned out to be 47.60%. In experiment [2], the EC50 worked out at 9.1 µM and the Emax came out at 95%. In addition, at SCD1, the IC50 is greater than 45 µM and the “SCD1 % Max Inhibition” value is 82.41%.

With `COc1cccc(-c2noc(C3CCN(C(=O)CNC(=O)c4ccccc4)CC3)n2)c1` [compound 11], the IC50 at Ole1, against SCD5 and at SCD1 was greater than 45 µM throughout. The results for the Emax in experiment [1] and in experiment [2] were 600% and 309%, respectively. Moreover, the EC50 in experiment [2] is 5.89 µM.

As for `COc1ccc(-c2noc(C3CCN(C(=O)CNC(c4ccccc4)C(F)(F)F)CC3)n2)cc1OC` (centres unmarked) [Compound 34], on Ole1, the IC50 is greater than 45 µM and the “OLE1 % Max Inhibition” value is recorded as 76.89%. In addition, in experiment [1], the Emax amounted to 596%. In addition, on SCD5, the IC50 is greater than 45 µM and the “SCD5 % Max Inhibition” value came out at 5.37%. Moreover, in experiment [2], the EC50 was determined as 11.1 µM and the Emax worked out at 562%. At SCD1, the IC50 is greater than 45 µM and the “SCD1 % Max Inhibition” value was found to be 42.55%.

Regarding `Cc1ccc(-c2noc(C3CCN(C(=O)[C@@H]4CC(=O)N(c5ccc(C)c(C)c5)C4)CC3)n2)cc1` [Compound 62], on Ole1, the IC50 is greater than 45 µM and the “OLE1 % Max Inhibition” value worked out at 86.77%. Besides, in experiment [1], the concentration giving a half-maximal response (EC50) amounted to 21.4 µM and the Emax was 430%. In addition, on SCD5, the IC50 was greater than 45 µM and the “SCD5 % Max Inhibition” value came out at 5.75%. Besides, in experiment [2], the EC50 turned out to be 21.7 µM and the Emax was found to be 204%. Besides, at SCD1, the 50% inhibitory concentration (IC50) is greater than 45 µM and the “SCD1 % Max Inhibition” value turned out to be 28.73%.

In the case of `O=C(NCC(=O)N1CCC(c2nc(-c3ccc(F)c(F)c3)no2)CC1)c1ccccc1` [compound 24], the figures for the IC50 against Ole1, against SCD5 and at SCD1 were greater than 45 µM, 30 µM and greater than 45 µM, respectively. Besides, the figures for the EC50 in experiment [1] and in experiment [2] were 13.3 µM and 5.13 µM, respectively. Also, the Emax was 301% in experiment [1] and 76% in experiment [2].

With `COc1ccc(-c2noc(C3CCN(C(=O)CNC(=O)c4ccc(C)cc4)CC3)n2)cc1OC` [compound 13], the IC50 at Ole1, on SCD5 and at SCD1 was greater than 45 µM each time. Also, the figures for the EC50 in experiment [1] and in experiment [2] were 0.368 µM and 0.058 µM, respectively. For the same compound, the Emax came to 837% in experiment [1] and 712% in experiment [2].

In the case of `COc1ccc(-c2noc(C3CCN(C(=O)Cc4ccccc4)CC3)n2)cc1OC` [Compound 44], on Ole1, the IC50 was greater than 45 µM and the “OLE1 % Max Inhibition” value is reported as 93.69%. Besides, in experiment [1], the EC50 worked out at 13.3 µM and the Emax stood at 676%. Also, at SCD5, the concentration for half-maximal inhibition (IC50) was greater than 45 µM and the “SCD5 % Max Inhibition” value came out at 10.99%. Also, in experiment [2], the EC50 stood at 10.9 µM and the Emax was found to be 579%. On SCD1, the half-inhibitory concentration (IC50) is greater than 45 µM and the “SCD1 % Max Inhibition” value worked out at 17.96%.

`O=C(NCC(=O)N1CCC(c2nc(-c3ccc4ccccc4n3)no2)CC1)c1ccccc1` [compound 79]: the 50% inhibitory concentration (IC50) against Ole1, at SCD5 and on SCD1 was greater than 45 µM throughout. Further, the figures for the EC50 in experiment [1] and in experiment [2] were 18.8 µM and 9.91 µM, respectively. Also, the Emax in experiment [1] was 631%; in experiment [2] it was 627%.
